Results reported in paper PMC8948292, “Combining PEGylated mito-atovaquone with MCT and Krebs cycle redox inhibitors as a potential strategy to abrogate tumor cell proliferation” (Scientific Reports, 2022).
Like-named read-outs stand apart in the source and are kept apart here.

Columns and labels:
MiaPaCa-2 cells [1] = assay: Cell proliferation (cell confluence), IncuCyte Live-Cell Analysis System; type: cell-based, human; conditions: MiaPaCa-2 cells; for IC50: Homo sapiens, MIA PaCa-2; for Inhibition of cell proliferation in combination with Mito-PEG5-ATO (combination index): combined with Mito-PEG5-ATO; for % changes of IC50 with vs without Mito-PEG5-ATO: heat map Fig. 7d
Description: (§1) The following cell lines were obtained from the American Type Culture Collection (Manassas, VA), where they were regularly authenticated: MiaPaCa-2 (ATCC Cat# CRL-1420, human pancreatic cancer cells), U87MG (ATCC Cat# HTB-14, human brain cancer cells), A549 (ATCC Cat# CCL-185, lung cancer cells), and HCT-116 (ATCC Cat# CCL-247, colon cancer cells). All cell lines were grown at 37 °C in 5% carbon dioxide. MiaPaCa-2 cells were maintained in Dulbecco's Modified Eagle Medium (Thermo Fisher Scientific, Waltham, MA; Cat# 11965) supplemented with 10% fetal bovine serum. U87MG, A549, and HCT-116 cells were maintained in RPMI 1640 medium (Thermo Fisher Scientific, Cat# 11875), supplemented with 10% fetal bovine serum. All cells were stored in liquid nitrogen and used within 20 passages after thawing.
(§2) The IncuCyte Live-Cell Analysis System was used to monitor cell proliferation[3],[33],[67]. As shown in previous publications[3],[67], this imaging system is probe-free and noninvasive, and enables continuous monitoring of cell confluence over several days. The increase in the percentage of cell confluence was used as a surrogate marker of cell proliferation. In a 96-well plate, cells were plated at 1,000 cells per well in triplicates and left to adhere overnight. Cells were then treated with Mito-PEG-ATO analogs, and the cell confluency was recorded over several days in the IncuCyte Live-Cell Analysis System.

HCT-116 cells = assay: as above; type: cell-based; conditions: Homo sapiens; HCT-116 cells; control ~90% confluence; read-out: IC50, inhibition of HCT-116 cell proliferation
Description: as §1, §2
(§3) Figure S7. Effects of Mito-PEG-ATO analogs on the proliferation of human lung cancer (A549) cells and human colon cancer (HCT-116) cells. (A) The effects of Mito-PEG5-ATO and ATO on the proliferation of A549 (left) or HCT-116 (right) cells were monitored in the IncuCyte Live-Cell Analysis system. The IncuCyte analyzer provides real-time updates on cell confluence, based on segmentation of high definition-phase contrast images. Representative cell images were shown as a segmentation mask illustrated in brown when control cells reached 90% confluence (vertical solid black line). (B) The IC50 values for A549 (left) or HCT-116 (right) cells were determined at the point at which control cells reached ~90% confluence (vertical solid black line). Relative cell confluence (control is taken as 100%) is plotted against concentration. Dashed lines represent the fitting curves used to determine the IC50 values as indicated. Data shown are the mean±SD.

A549 cells = assay: as above; type: cell-based; conditions: Homo sapiens; A549 cells; control ~90% confluence; read-out: IC50, inhibition of A549 cell proliferation
Description: as §1, §2, §3

[2] = tested on: mitochondrial respiration (OCR) in intact MiaPaCa-2 cells; assay: Intact cell mitochondrial respiration (basal OCR), Seahorse XF-96; type: cell-based, human; conditions: 24 h treatment; for OCR (pmol/min/µg protein): intact MiaPaCa-2 cells, baseline OCR, mean, n=4
Description: Mitochondrial oxygen consumption was measured using the Seahorse XF-96 Extracellular Flux Analyzer (Agilent, North Billerica, MA)[3],[33],[67],[68]. To determine the intact cell mitochondrial function of MiaPaCa-2 cells in response to Mito-PEG-ATO analogs, we used the bioenergetic function assay previously described[2],[3]. […] From these measurements, indices of mitochondrial function were determined as previously described[2],[3]. For mitochondrial complex activities assays, after cells were treated with Mito-PEG-ATO analogs for 24 h, the OCR-based assessment of mitochondrial complex activities was carried out on acutely permeabilized cells in the presence of different mitochondrial substrates, i.e., pyruvate/malate for complex I and duroquinol for complex III[3],[32],[34],[69]. Rotenone, malonate, and antimycin A (Sigma-Aldrich, St. Louis, MO) were used as specific inhibitors of mitochondrial complexes I, II, and III, respectively. Briefly, cells that were intact after treatments were immediately permeabilized using the Seahorse XF Plasma Membrane Permeabilizer (Agilent). The mitochondrial complex I-induced OCR was assayed in mannitol and sucrose buffer[69] containing 10 mM pyruvate and 1.5 mM malate (substrates for complex I) and 10 mM malonate (which inhibits complex II activities). The mitochondrial complex III-driven OCR was assayed in a mannitol and sucrose buffer containing 0.5 mM duroquinol (substrate for complex III) as well as 1 µM rotenone and 10 mM malonate (which inhibit both complex I and II activities). The IC50 values were determined as previously reported.

MiaPaCa-2 cells [3] = assay: Intracellular oxidants: HPLC of hydroethidine (HE) oxidation products; type: cell-based, human; conditions: 24 h, with Mito-PEG5-ATO 0.05 µM, AZD-3965 200 µM or CPI-613 200 µM
Description: Hydroethidine (HE) or dihydroethidium was used as a fluorogenic probe to assess the cellular generation of superoxide and other peroxidatic oxidants[36],[37]. Cells were treated for 24 h with Mito-PEG5-ATO alone or in combination with AZD-3965 or CPI-613, followed by 1 h incubation with HE (10 µM). Cells were harvested and the cell pellet stored at − 80 °C until the day of high-performance liquid chromatography (HPLC) analysis. Sample preparation and HPLC analysis were performed as previously reported[32],[36]. 2-OH-E^+ was used as a specific marker for superoxide, and E^+-E^+ was used as a specific marker for intracellular one-electron oxidants[36],[37].
HE was purchased from Invitrogen (Carlsbad, CA). Stock solutions (20 mM and 5 mM, respectively) were prepared in deoxygenated DMSO (dimethyl sulfoxide) and stored at − 80 °C until use. Ethidium cation (bromide salt) was purchased from Sigma-Aldrich. The hydroxylated oxidation products from HE (2-OH-E^+) were prepared by reacting the probes with Fremy’s salt as previously described in detail[70],[71]. The dimeric products were prepared by reacting the probes with excess potassium ferricyanide, as detailed elsewhere. Synthesized standards of all oxidation products of HE were purified by HPLC. HPLC-based measurements of HE and its oxidation products were performed using an Agilent 1100 system equipped with absorption and fluorescence detectors and refrigerated autosampler (4 °C). The samples (50 µL) were injected into a reverse phase column (Phenomenex, Kinetex C18, 100 mm × 4.6 mm, 2.6 µm) equilibrated with 20% acetonitrile and 80% water containing 0.1% trifluoroacetic acid. The compounds were eluted by increasing the content of acetonitrile from 20 to 56% over 4.5 min at a flow rate of 1.5 mL/min. The absorption detector was used to measure 3,8-diamino-6-phenylphenanthridine (at 290 nm; retention time: 2.5 min), HE-E^+ (at 290 nm; retention time: 4.1 min), E^+-E^+ (at 290 nm; retention time: 4.3 min), and HE (at 370 nm; retention time: 1.6 min). A fluorescence detector (initial excitation at 358 nm and emission at 440 nm) was used to monitor HE (when present at low concentrations). At 2.3 min after injection, the fluorescence parameters were changed (excitation at 490 nm and emission at 567 nm) for sensitive detection of 2-OH-E^+ (retention time: 3.2 min) and E^+ (retention time: 3.3 min).

MiaPaCa-2 cells [4] = assay: Intracellular ATP, luciferase-based assay; type: cell-based, human; conditions: Mito-PEG5-ATO 0 µM, 24 h
Description: After seeding cells overnight at 2 × 10^4 per well in 96-well plates, cells were treated for 24 h. Intracellular ATP levels were determined in cell lysates using a luciferase-based assay per the manufacturer’s instructions (cat# FLAA, Sigma Aldrich, St. Louis, MO). In brief, the assay starts by rapidly adding an ATP assay mix solution (luciferase and luciferin solution, cat# FLAAM) to cell lysates. This is swirled briskly to mix, and the amount of light produced is immediately measured with a luminometer. The results were normalized to the total protein level measured in each well, as determined by the Bradford method (Bio-Rad Laboratories, Hercules, CA).

[5] = inhibitor alone, control ~90% confluence, read-out: IC50 (cell proliferation) without Mito-PEG5-ATO

## O=C1C(O)=C([C@H]2CC[C@H](c3ccc(Cl)cc3)CC2)C(=O)c2ccccc21 [ATO, atovaquone]
MiaPaCa-2 cells [1]; determined when control cells reached ~90% confluence, read-out: IC50, inhibition of cell proliferation
  IC50: 19 µM
HCT-116 cells
  IC50: 20 µM
A549 cells
  IC50: 24 µM
[2]; 1 µM
  OCR (pmol/min/µg protein): 11.69 pmol/min/µg protein
[2]; 3 µM
  OCR (pmol/min/µg protein): 11.27 pmol/min/µg protein
[2]; 10 µM
  OCR (pmol/min/µg protein): 4.45 pmol/min/µg protein
[2]; 15 µM
  OCR (pmol/min/µg protein): 3.40 pmol/min/µg protein
[2]; 17.5 µM
  OCR (pmol/min/µg protein): 2.08 pmol/min/µg protein
[2]; 20 µM
  OCR (pmol/min/µg protein): 1.80 pmol/min/µg protein
[2]; 22.5 µM
  OCR (pmol/min/µg protein): 2.05 pmol/min/µg protein
[2]; 25 µM
  OCR (pmol/min/µg protein): 2.46 pmol/min/µg protein
[2]; 30 µM
  OCR (pmol/min/µg protein): 1.99 pmol/min/µg protein
[2]; 40 µM
  OCR (pmol/min/µg protein): 2.11 pmol/min/µg protein
[2]; 50 µM
  OCR (pmol/min/µg protein): 0.93 pmol/min/µg protein
[2]; Homo sapiens, MIA PaCa-2, MiaPaCa-2 cells, read-out: IC50, inhibition of basal OCR in intact cells
  IC50: 6.5 µM

## O=C(O)CCCCC(CCSCc1ccccc1)SCc1ccccc1 (centres unmarked) [CPI-613, reference compound]
MiaPaCa-2 cells [3]
  Intracellular oxidant-induced HE-derived products, in combination with Mito-PEG5-ATO: modest and additive increase
MiaPaCa-2 cells [1]; [5]
  IC50: 197 µM
MiaPaCa-2 cells [1]; 200 µM
  Inhibition of cell proliferation, alone: only moderately inhibited cell proliferation
MiaPaCa-2 cells [1]
  Inhibition of cell proliferation in combination with Mito-PEG5-ATO (combination index): synergistically inhibited cell proliferation
  % changes of IC50 with vs without Mito-PEG5-ATO: 38.6%

## CCOC(=O)Oc1c(OC)cc(C(=O)O[C@@H]2C[C@@H]3CN4CCc5c([nH]c6cc(OC)ccc56)[C@H]4C[C@@H]3[C@H](C(=O)OC)[C@H]2OC)cc1OC [syrosingopine]
MiaPaCa-2 cells [3]
  Intracellular oxidant-induced HE-derived products, in combination with Mito-PEG5-ATO: modest and additive increase
MiaPaCa-2 cells [1]; [5]
  IC50: 8 µM
MiaPaCa-2 cells [1]
  Inhibition of cell proliferation in combination with Mito-PEG5-ATO (combination index): Synergistic inhibition
  % changes of IC50 with vs without Mito-PEG5-ATO: 53.8%
MiaPaCa-2 cells [4]; syrosingopine 1 µM
  intracellular ATP level: 29.40 nmol ATP/mg protein
MiaPaCa-2 cells [4]; syrosingopine 3 µM
  intracellular ATP level: 30.31 nmol ATP/mg protein
MiaPaCa-2 cells [4]; syrosingopine 4 µM
  intracellular ATP level: 29.92 nmol ATP/mg protein
MiaPaCa-2 cells [4]; syrosingopine 5 µM
  intracellular ATP level: 30.42 nmol ATP/mg protein
MiaPaCa-2 cells [4]; syrosingopine 6 µM
  intracellular ATP level: 30.16 nmol ATP/mg protein
MiaPaCa-2 cells [4]; syrosingopine 7 µM
  intracellular ATP level: 31.07 nmol ATP/mg protein
MiaPaCa-2 cells [4]; syrosingopine 8 µM
  intracellular ATP level: 31.92 nmol ATP/mg protein
MiaPaCa-2 cells [4]; syrosingopine 9 µM
  intracellular ATP level: 32.59 nmol ATP/mg protein
MiaPaCa-2 cells [4]; syrosingopine 10 µM
  intracellular ATP level: 32.30 nmol ATP/mg protein
MiaPaCa-2 cells [4]; syrosingopine 15 µM
  intracellular ATP level: 33.63 nmol ATP/mg protein
MiaPaCa-2 cells [4]; syrosingopine 20 µM
  intracellular ATP level: 30.18 nmol ATP/mg protein
